Data published in US8598368B2, “Stable neutral nitric oxide source” (priority 2007, dated 2013).

What was measured:
[1] = Stability of the Diels-Alder adduct and its hydrogenated derivative (observation); assay type: physicochemical; details: white solid precipitated at 0° C., then warmed
Method: At 0° C., a white solid, presumed to be 2, precipitated from solution. […] To confirm the identity of 2, hydrogenation produced stable compound 3 as described below.

[2] = Treatment of patient with chronic hypertension; assay type: in vivo; details: intravenous, blood concentration of 10 nanomolar
Text: A person being treated with sodium iodide for hyperthyroidism has chronic hypertension (BP of 165/90). The patient is given 4 intravenously to maintain a blood concentration of 10 nanomolar. Blood pressure reduces to 140/85.
Treatment of patient with chronic hypertension with 6 The patient who has chronic hypertension (BP of 165/90) is given 6 intravenously to maintain a blood concentration of 10 nanomolar. Blood pressure reduces to 140/85.

Row | SMILES | Stability (retro Diels Alder reaction) [1] | other results
1 | N#CC1(N2OC3C=CC2C3)CCCCC1 (stereo not shown) [Compound 2] | On warming, the solid turned blue, suggesting retro Diels Alder reaction | 
2 | N#CC1(N2OC3CCC2C3)CCCCC1 (stereo not shown) [Compound 3, N-(−1-cyanocyclohexyl)bicyclo[2.2.1]3,4,5,6-tetrahydro-1,2-oxazine] | stable | 
3 | N#CC1(N2OC3CC2C(Br)C3Br)CCCCC1 (stereo not shown) [Compound 4, N-(1-cyanocyclohexyl)bicyclo[2.2.1]4,5-dibromo-3,6-dihydro-1,2-oxazine] |  | Blood pressure ([2]; person treated with sodium iodide, chronic hypertension (BP of 165/90)): 140/85
4 | N#CC1(N2OC3CC2C(S)C3O)CCCCC1 (stereo not shown) [Compound 6, N-(1-Cyanocyclohexyl)bicyclo[2.2.1]4-thio-5-hydroxy-3,6-dihydro-1,2-oxazine] |  | Blood pressure ([2]; patient with chronic hypertension (BP of 165/90)): 140/85
